ChEMBL document CHEMBL1145872, “Synthesis and in vitro efficacy of acid-sensitive poly(ethylene glycol) paclitaxel conjugates” (Bioorg Med Chem Lett, 2003)
pIC50: −log10 of the molar value.

Tests used:
Type in all cases: functional, cell-based
[1] = tested on: MEXF514; experiment: In vitro inhibitory concentration of compound against human cancer MEXF 514 cell line was determined
[2] = tested on: RXF 944; experiment: In vitro inhibitory concentration of compound against human cancer RXF 944 cell line was determined
[3] = tested on: MCF7; experiment: In vitro inhibitory concentration of compound against human cancer MACL MCF-7 cell line was determined

pIC50 [1] | pIC50 [2] | pIC50 [3] | Compound
6.66 | 7.05 | 6.89 | CC(=O)O[C@H]1C(=O)[C@@]2(C)C([C@H](OC(=O)c3ccccc3)C3(O)C[C@H](OC(=O)[C@H](OC(=O)c4ccc(C(C)=O)cc4)[C@@H](NC(=O)c4ccccc4)c4ccccc4)C(C)=C1C3(C)C)[C@]1(OC(C)=O)COC1C[C@@H]2O (stereo not given in full)
5.99 | 7.30 |  | CC(=O)O[C@H]1C(=O)[C@@]2(C)[C@H]([C@H](OC(=O)c3ccccc3)[C@]3(O)C[C@H](OC(=O)[C@H](O)[C@@H](NC(=O)c4ccccc4)c4ccccc4)C(C)=C1C3(C)C)[C@]1(OC(C)=O)CO[C@@H]1C[C@@H]2O [PACLITAXEL]
